IC50 data for ten compounds are collected here from PubChem BioAssay AID434933 (The Scripps Research Institute Molecular Screening Center, 2010).

Broadly, the IC50 is the point on the concentration scale where inhibition reaches its midpoint.

The structures appear in SMILES notation. Values joined by “and” are separate entries in the source; they are usually repeats but may differ in a detail not shown here. Equal entries are not always repeated. Active and inactive are the calls of the source.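 How the source made its calls: active means compound with HepG2 cell viability IC50 of 10 micromolar or lower; inactive means IC50 above 10 micromolar.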

The experiment relates to HepG2 viability, CellTiter-Glo ATP luminescence. The experiment in a line: cytotoxicity in HepG2 cells, late-stage follow-up, cytotoxicity control for TPT1 inhibitor project, cell-based, luminescence, dose response (AID 434933).
With `Cc1[nH]n(-c2ccc(S(=O)(=O)O)cc2)c(=O)c1N[N-]c1ccc(C2=CC(=O)/C(=N\[N-]c3ccc4c(S(=O)(=O)O)cc(S(=O)(=O)O)c(N)c4c3O)C=C2)cc1O.[Cu+].[Cu+]`, the IC50 was 53.6 µM (inactive). Turning to `Cc1ccccc1N1C(=O)/C(=C/c2ccco2)C(=O)NC1=S`, the IC50 is > 79.4 µM (inactive) and 36.6 µM (inactive). As for `COc1ccc(OC)c(N2C(=O)/C(=C/c3ccco3)C(=O)NC2=S)c1`, the IC50 is > 79.4 µM (inactive). Regarding `CC1=C(C#N)C(=O)N(C2CCS(=O)(=O)C2)C(=O)/C1=C\c1ccco1` (stereo not given), the IC50 was > 79.4 µM (inactive). Take `Cc1cc(C)n(Cc2ccc(C(=O)NN=Cc3ccc(-c4ccc([N+](=O)[O-])cc4)o3)o2)n1`: the IC50 is 72.7 µM (inactive). Next, `NS(=O)(=O)c1cc(C(=O)NC2CCSc3ccccc32)ccc1Cl` (stereo not given): > 79.4 µM (inactive); `OC(Cn1cncn1)(Cn1cncn1)c1ccc(F)cc1F`: > 79.4 µM (inactive); `NC(=O)c1cc[n+](CC2=C(C(=O)O)N3C(=O)[C@@H](NC(=O)C(c4ccccc4)S(=O)(=O)O)[C@H]3SC2)cc1` (stereo not given in full): > 79.4 µM (inactive). As to `O=c1oc2c(O)c(O)cc3c(=O)oc4c(O)c(O)cc1c4c23`, the IC50 is > 79.4 µM (inactive). With `Cc1ccc(N2C(=O)NC(=O)/C(=C\c3ccc([N+](=O)[O-])o3)C2=O)cc1`, the IC50 is 53.5 µM (inactive).
